Results as given in ChEMBL document CHEMBL1201862, “PubChem BioAssay data set” (2004).
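Test compounds were applied to cells in 96-well plates for 48 hours at 5 doses. At the GI50, growth is halved.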 Active and inactive are the calls of the source. No stated cut-off is given here; in the data, active = GI50 up to about 1.1 µM and inactive = higher.

Experiments:
Assay in all cases: NCI tumour cell line growth inhibition, 48 h
MCF7 = tested on: MCF7
DU-145 = tested on: DU-145
NCI-H522 = tested on: NCI-H522
SK-MEL-5 = tested on: SK-MEL-5
SF-295 = tested on: SF-295
OVCAR-3 = tested on: OVCAR-3
UACC-62 = tested on: UACC-62
RPMI-8226 = tested on: RPMI-8226
LOX IMVI = tested on: LOX IMVI
COLO 205 = tested on: COLO 205
CCRF-CEM = tested on: CCRF-CEM
ACHN = tested on: ACHN
KM12 = tested on: KM12
U-251 = tested on: U-251
EKVX = tested on: EKVX
786-0 = tested on: 786-0
MOLT-4 = tested on: MOLT-4
IGROV-1 = tested on: IGROV-1
UACC-257 = tested on: UACC-257
SK-OV-3 = tested on: SK-OV-3
SF-539 = tested on: SF-539
M14 = tested on: M14
OVCAR-5 = tested on: OVCAR-5
SF-268 = tested on: SF-268
T47D = tested on: T47D
SW-620 = tested on: SW-620
UO-31 = tested on: UO-31
A549 = tested on: A549
NCI-H226 = tested on: NCI-H226
SNB-75 = tested on: SNB-75
NCI-H23 = tested on: NCI-H23
OVCAR-8 = tested on: OVCAR-8
HCC 2998 = tested on: HCC 2998
BT-549 = tested on: BT-549
SK-MEL-2 = tested on: SK-MEL-2
MDA-MB-435 = tested on: MDA-MB-435
MDA-MB-231 = tested on: MDA-MB-231
HT-29 = tested on: HT-29
TK-10 = tested on: TK-10
NCI/ADR-RES = tested on: NCI/ADR-RES
PC-3 = tested on: PC-3
HOP-62 = tested on: HOP-62
MDA-N = tested on: MDA-N
HCT-15 = tested on: HCT-15
SN12C = tested on: SN12C
CAKI-1 = tested on: CAKI-1
HCT-116 = tested on: HCT-116
Malme-3M = tested on: Malme-3M
K562 = tested on: K562
Hs-578T = tested on: Hs-578T
SR = tested on: SR
SK-MEL-28 = tested on: SK-MEL-28
HOP-92 = tested on: HOP-92
A498 = tested on: A498
OVCAR-4 = tested on: OVCAR-4
NCI-H460 = tested on: NCI-H460
SNB-19 = tested on: SNB-19
RXF 393 = tested on: RXF 393

## O=c1c2c(oc3ccccc13)-c1ccccc1OC2
MCF7
  GI50: > 100000 nM (inactive)
DU-145
  GI50: 53300 nM (inactive)
NCI-H522
  GI50: > 100000 nM (inactive)
SK-MEL-5
  GI50: 44800 nM (inactive)
SF-295
  GI50: > 100000 nM (inactive)
OVCAR-3
  GI50: > 100000 nM (inactive)
UACC-62
  GI50: > 100000 nM (inactive)
RPMI-8226
  GI50: > 100000 nM (inactive)
LOX IMVI
  GI50: 46000 nM (inactive)
COLO 205
  GI50: > 10000 nM (inactive)
CCRF-CEM
  GI50: > 100000 nM (inactive)
ACHN
  GI50: 35700 nM (inactive)
KM12
  GI50: > 100000 nM (inactive)
U-251
  GI50: 29000 nM (inactive)
EKVX
  GI50: 53200 nM (inactive)
786-0
  GI50: 24400 nM (inactive)
MOLT-4
  GI50: > 100000 nM (inactive)
IGROV-1
  GI50: 36700 nM (inactive)
UACC-257
  GI50: > 100000 nM (inactive)
SK-OV-3
  GI50: 20200 nM (inactive)
SF-539
  GI50: 25200 nM (inactive)
M14
  GI50: > 100000 nM (inactive)
OVCAR-5
  GI50: > 100000 nM (inactive)
SF-268
  GI50: 57900 nM (inactive)
T47D
  GI50: 16300 nM (inactive)
SW-620
  GI50: 67800 nM (inactive)
UO-31
  GI50: 28600 nM (inactive)
A549
  GI50: 96600 nM (inactive)
NCI-H226
  GI50: > 100000 nM (inactive)
SNB-75
  GI50: 16700 nM (inactive)
NCI-H23
  GI50: 59700 nM (inactive)
OVCAR-8
  GI50: 27900 nM (inactive)
HCC 2998
  GI50: > 100000 nM (inactive)
BT-549
  GI50: > 100000 nM (inactive)
SK-MEL-2
  GI50: > 100000 nM (inactive)
MDA-MB-435
  GI50: > 100000 nM (inactive)
MDA-MB-231
  GI50: 21100 nM (inactive)
HT-29
  GI50: > 100000 nM (inactive)
TK-10
  GI50: > 100000 nM (inactive)
NCI/ADR-RES
  GI50: 29300 nM (inactive)
PC-3
  GI50: > 100000 nM (inactive)
HOP-62
  GI50: 88900 nM (inactive)
MDA-N
  GI50: > 100000 nM (inactive)
HCT-15
  GI50: > 100000 nM
SN12C
  GI50: 53300 nM (inactive)
CAKI-1
  GI50: 26100 nM (inactive)
HCT-116
  GI50: 29900 nM (inactive)
Malme-3M
  GI50: > 100000 nM (inactive)
K562
  GI50: > 100000 nM (inactive)

## O=C1NC(c2cccc3ccccc23)Nc2ccccc21 (stereo not drawn)
Hs-578T
  GI50: 14.7 nM (active)
MCF7
  GI50: < 17.1 nM (active)
DU-145
  GI50: 64 nM (active)
SK-MEL-5
  GI50: < 20.2 nM (active)
SF-295
  GI50: < 20.2 nM (active)
OVCAR-3
  GI50: 15 nM (active)
UACC-62
  GI50: < 18.4 nM (active)
RPMI-8226
  GI50: 25.7 nM (active)
SR
  GI50: < 15.3 nM (active)
LOX IMVI
  GI50: 90.6 nM (active)
COLO 205
  GI50: 45.8 nM (active)
CCRF-CEM
  GI50: 10 nM (active)
ACHN
  GI50: 70.8 nM (active)
SK-MEL-28
  GI50: 127 nM (active)
KM12
  GI50: 39.9 nM (active)
HOP-92
  GI50: 172 nM (active)
U-251
  GI50: 33.6 nM (active)
A498
  GI50: 26.2 nM (active)
EKVX
  GI50: 143 nM (active)
786-0
  GI50: 59.3 nM (active)
MOLT-4
  GI50: 52.8 nM (active)
IGROV-1
  GI50: 45.7 nM (active)
UACC-257
  GI50: 46.5 nM (active)
SK-OV-3
  GI50: 36.2 nM (active)
SF-539
  GI50: 36.3 nM (active)
OVCAR-4
  GI50: 9.31 nM (active)
M14
  GI50: 29.8 nM (active)
OVCAR-5
  GI50: 133 nM (active)
SF-268
  GI50: 832 nM (active)
NCI-H460
  GI50: 50.6 nM (active)
SW-620
  GI50: 27.7 nM (active)
UO-31
  GI50: 1050 nM (active)
A549
  GI50: 96.8 nM (active)
NCI-H226
  GI50: 87.5 nM (active)
SNB-75
  GI50: 11.1 nM (active)
NCI-H23
  GI50: 93.1 nM (active)
SNB-19
  GI50: 39.9 nM (active)
OVCAR-8
  GI50: 105 nM (active)
HCC 2998
  GI50: 73.6 nM (active)
BT-549
  GI50: 454 nM (active)
SK-MEL-2
  GI50: 40 nM (active)
MDA-MB-435
  GI50: 15.3 nM (active)
MDA-MB-231
  GI50: 87.3 nM (active)
TK-10
  GI50: 157 nM (active)
NCI/ADR-RES
  GI50: < 19.9 nM (active)
PC-3
  GI50: 42.3 nM (active)
HOP-62
  GI50: 139 nM (active)
HCT-15
  GI50: < 22.4 nM
SN12C
  GI50: 132 nM (active)
CAKI-1
  GI50: < 40.9 nM (active)
HCT-116
  GI50: 33.6 nM (active)
Malme-3M
  GI50: 46.3 nM (active)
RXF 393
  GI50: 30.2 nM (active)
K562
  GI50: < 21.2 nM (active)
